Results taken from PubChem BioAssay (NCI).
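All cell lines were grown in 96-well plates and treated with compound for 48 hours. GI50 = concentration required for 50% inhibition of growth. TGI: total growth inhibition.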

What was measured:
Assay in all cases: DTP human tumour cell line panel, 48 h
HOP-92 NSCLC = tested on: HOP-92 NSCLC
EKVX NSCLC = tested on: EKVX NSCLC
OVCAR-3 ovarian = tested on: OVCAR-3 ovarian
HS 578T breast = tested on: HS 578T breast
SK-OV-3 ovarian = tested on: SK-OV-3 ovarian
UO-31 renal = tested on: UO-31 renal
PC-3 prostate = tested on: PC-3 prostate
COLO 205 colon = tested on: COLO 205 colon
DU-145 prostate = tested on: DU-145 prostate
NCI-H522 lung = tested on: NCI-H522 lung
SK-MEL-28 melanoma = tested on: SK-MEL-28 melanoma
SK-MEL-5 melanoma = tested on: SK-MEL-5 melanoma
SNB-75 CNS = tested on: SNB-75 CNS

Structure (SMILES)	TGI (HOP-92 NSCLC) [µM]	TGI (EKVX NSCLC) [µM]	TGI (OVCAR-3 ovarian) [µM]	TGI (HS 578T breast) [µM]	TGI (SK-OV-3 ovarian) [µM]	TGI (UO-31 renal) [µM]	TGI (PC-3 prostate) [µM]	TGI (COLO 205 colon) [µM]	TGI (DU-145 prostate) [µM]	TGI (NCI-H522 lung) [µM]	TGI (SK-MEL-28 melanoma) [µM]	TGI (SK-MEL-5 melanoma) [µM]	TGI (SNB-75 CNS) [µM]	GI50 (OVCAR-3 ovarian) [µM]	GI50 (DU-145 prostate) [µM]
COc1cccc(NC(=O)CC(=O)N2N=C(C)C(N=Nc3ccc(S(=O)(=O)c4ccc(N=NC5C(=O)N(C(=O)CC(=O)Nc6cccc(OC)c6)N=C5C)cc4)cc3)C2=O)c1 (stereo not drawn)	> 100	> 100	> 100	> 100	> 100	> 100	> 100	> 100	> 100	> 100	> 100	> 100	> 100		
O=[N+]([O-])c1ccc2nc(/C=C(\O)c3ccc(F)cc3)c(/C=C(\O)c3ccc(F)cc3)nc2c1	> 100	> 100	> 100	> 100	47.5	> 100	> 100	> 100	> 100	> 100	> 100	> 100	37.5		
CC[C@@H](/C=C\CCC1(C[C@H](O)CCC=C(C)C)OCCO1)O[Si](C(C)C)(C(C)C)C(C)C	66.8	60.2	37.1	80.5	41.8	34.3	> 100	40.1	> 100	39.2	73.4	37.5	64.9		
Brc1ccc2[nH]cc(-c3nc(-c4c[nH]c5ccccc45)cs3)c2c1	7.86	12.3	15.5	> 47.9	21.4	13.9	9.55	2.76	10.4	3.73	20.9	4.01	25.1		
N#CC1(C#N)NC(c2ccsc2)C(C#N)(C#N)NC1c1ccsc1 (stereo not drawn)	> 100	> 100	> 100	> 100	> 100	> 100	> 100	> 100	> 100	> 100	> 100	> 100	> 100		
Cc1cccc2c1NC(=S)[C@@H]1CCCN1C2=O	> 100	> 100	> 100	> 100	> 100	> 100	> 100	> 100	> 100	> 100	> 100	> 100	> 100		
CC[n+]1c(/C=C/c2ccc(N(CCCl)CCCl)cc2)ccc2cc(NC(=O)/C=C/c3ccccc3)ccc21	1.07	4.76	11.4	1.25	2.81	52.2	1.09	0.222	1.64	1.17	2.03	0.632	1.05		
CN(C)c1ccc(N=Nc2ccccn2)cc1	> 100	> 100	> 100	> 100	> 100	79.8	81.9	21.8	> 100	> 100	> 100	> 100	> 100		
COc1ccc(N=C(Nc2ccc(OC)cc2)C(=Nc2ccc(OC)cc2)Nc2ccc(OC)cc2)cc1	> 100	> 100	> 100	> 100	> 100	> 100	> 100	> 100	> 100	> 100	> 100	> 100	8.01		
O=[N+]([O-])c1cccnc1NCC1(CO)CC(Cc2ccccc2)C1 (stereo not drawn)	60.1	> 100	> 100	> 100	> 100	> 100	> 100	> 100	> 100	> 100	> 100	> 100	> 100		
CSc1ccc(/C=C2\N=C(c3ccccc3)N(c3nc4ccc(Sc5ccccc5)cc4[nH]3)C2=O)cc1	34	> 100	35.9	58.1	60.8	68.5	> 87.9	30.9	70.7	39.9	51.8	27.3	45.6		
COC(=O)c1cc(C#Cc2cc(OC)ccc2OC)ccc1OC	85.9	> 100	77.6	> 100	> 100	> 100	> 100	52.3	> 100	> 100	> 100	53.1	> 100	13.6	43.6
